Measurements reported in ChEMBL document CHEMBL1131820, “Synthesis of pyrazolidinone antibacterial agents” (1999).
≈ marks a conversion by molar mass, not a printed value. Calls of active or inactive are those of the source. No cut-off for these calls is given here.

What was measured:
[1] = tested on: Micrococcus luteus; assay: microbe, parasite or virus in culture; format: functional
Description: Antibacterial activity against Micrococcus luteus; 128 to 512 ug/mL

[2] = tested on: Escherichia coli; assay: In vitro antibacterial activity against Escherichia coli; Active; format: functional, organism-based
[3] = tested on: Staphylococcus aureus; assay: Compound was tested by in vitro qualitative microbiological testings with cephalothin against Staphylococcus aureus; positive synergy test; format: functional, organism-based
[4] = tested on: Staphylococcus aureus; assay: microbe, parasite or virus in culture; format: functional
[5] = tested on: Escherichia coli; assay: Compound was tested by in vitro qualitative microbiological testings with cephalothin against Escherichia coli; positive synergy test; format: functional, organism-based
[6] = tested on: Staphylococcus aureus; assay: Compound was tested by in vitro qualitative microbiological testings with cephalothin against Staphylococcus aureus; No anti bacterial activity; format: functional, organism-based
[7] = tested on: Escherichia coli; assay: Compound was tested by in vitro qualitative microbiological testings with cephalothin against Escherichia coli; No anti bacterial activity; format: functional, organism-based

Row | Structure (SMILES) | MIC [1] [µg/mL] | Activity [2] | Activity [3] | MIC [4] [µg/mL] | Activity [5] | Activity [6] | Activity [7]
1 | CN1CC(NC(=O)Cc2ccccc2)C(=O)N1C(=O)Cc1ccccc1 (centres undefined) | 128 (≈ 364 µM) | Active | positive synergy test | 128 (≈ 364 µM) | – | – | –
2 | CN1CC(NC(=O)Cc2ccccc2)C(=O)N1C(=O)c1ccccc1 (centres undefined) | 128 (≈ 379 µM) | Active | positive synergy test | 128 (≈ 379 µM) | – | – | –
3 | CC(=O)N1C(=O)C(NC(=O)Cc2ccccc2)CN1C (centres undefined) | – | – | positive synergy test | – | positive synergy test | – | –
4 | CN1CC(NC(=O)Cc2ccccc2)C(=O)N1 (centres undefined) | – | – | – | – | – | inactive | inactive
5 | CN1CC(NC(=O)Cc2ccccc2)C(=O)N1C(=O)c1cccc(O)c1 (centres undefined) | 128 (≈ 362 µM) | – | – | 128 (≈ 362 µM) | – | – | –
